Test results as given in the supplement of paper PMC10307832.

Columns and labels:
Experiment in all cases: relative viability (nuclei count vs DMSO), 5 days (fraction); higher = more cells survive
Alisertib + Bortezomib = compound: COc1cc(Nc2ncc3c(n2)-c2ccc(Cl)cc2C(c2c(F)cccc2OC)=NC3)ccc1C(=O)O [Alisertib] + CC(C)C[C@H](NC(=O)[C@H](Cc1ccccc1)NC(=O)c1cnccn1)B(O)O [Bortezomib] (partner 0.002 µM)
In short: (§1)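 One day after seeding in 1536-well plates, lung cancer cell lines were dosed by pin tool. Dosing was either single-drug or a fixed anchor-drug dose plus five library-drug doses (not always all listed) in √10 steps. After 5 days, nuclei were stained in one fix-and-stain step and counted on 4× images, and relative viability is the nuclei count of treated wells over that of vehicle wells, given as the median of duplicate plates.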

Alisertib + AZD7762 = compound: COc1cc(Nc2ncc3c(n2)-c2ccc(Cl)cc2C(c2c(F)cccc2OC)=NC3)ccc1C(=O)O [Alisertib] + NC(=O)Nc1cc(-c2cccc(F)c2)sc1C(=O)N[C@H]1CCCNC1 [AZD7762] (partner 0.2 µM)
In short: as §1

Alisertib + Tozasertib = compound: COc1cc(Nc2ncc3c(n2)-c2ccc(Cl)cc2C(c2c(F)cccc2OC)=NC3)ccc1C(=O)O [Alisertib] + Cc1cc(Nc2cc(N3CCN(C)CC3)nc(Sc3ccc(NC(=O)C4CC4)cc3)n2)n[nH]1 [Tozasertib] (partner 0.1 µM)
In short: as §1

Alisertib + Decitabine = compound: COc1cc(Nc2ncc3c(n2)-c2ccc(Cl)cc2C(c2c(F)cccc2OC)=NC3)ccc1C(=O)O [Alisertib] + Nc1ncn([C@H]2C[C@H](O)[C@@H](CO)O2)c(=O)n1 [Decitabine] (partner 2 µM)
In short: as §1

| Cell Line | relative viability (Alisertib + Bortezomib; first compound 0.005 µM) | relative viability (Alisertib + Bortezomib; first compound 0.01581 µM) | relative viability (Alisertib + Bortezomib; first compound 0.05 µM) | relative viability (Alisertib + Bortezomib; first compound 0.1581 µM) | relative viability (Alisertib + Bortezomib; first compound 0.5 µM) | relative viability (Alisertib + AZD7762; first compound 0.005 µM) | relative viability (Alisertib + AZD7762; first compound 0.01581 µM) | relative viability (Alisertib + AZD7762; first compound 0.05 µM) | relative viability (Alisertib + AZD7762; first compound 0.1581 µM) | relative viability (Alisertib + AZD7762; first compound 0.5 µM) | relative viability (Alisertib + Tozasertib; first compound 0.005 µM) | relative viability (Alisertib + Tozasertib; first compound 0.01581 µM) | relative viability (Alisertib + Tozasertib; first compound 0.05 µM) | relative viability (Alisertib + Tozasertib; first compound 0.1581 µM) | relative viability (Alisertib + Tozasertib; first compound 0.5 µM) | relative viability (Alisertib + Decitabine; first compound 0.005 µM) | relative viability (Alisertib + Decitabine; first compound 0.01581 µM) | relative viability (Alisertib + Decitabine; first compound 0.05 µM) | relative viability (Alisertib + Decitabine; first compound 0.1581 µM) | relative viability (Alisertib + Decitabine; first compound 0.5 µM) |
| --- | --- | --- | --- | --- | --- | --- | --- | --- | --- | --- | --- | --- | --- | --- | --- | --- | --- | --- | --- | --- |
| NCI-H1437 | 0.489 | 0.457 | 0.191 | 0.191 | 0.114 | 1.07 | 1.09 | 0.751 | 0.399 | 0.201 | 0.38 | 0.372 | 0.297 | 0.269 | 0.195 | 0.5 | 0.519 | 0.439 | 0.27 | 0.209 |
| NCI-H2085 | 0.923 | 0.979 | 0.73 | 0.327 | 0.394 | 0.876 | 0.874 | 0.882 | 0.284 | 0.348 | 0.723 | 0.669 | 0.526 | 0.476 | 0.394 | 0.565 | 0.544 | 0.319 | 0.396 | 0.332 |
| H3255 | 0.664 | 0.733 | 0.46 | 0.216 | 0.195 | 0.712 | 0.952 | 0.613 | 0.274 | 0.234 | 0.737 | 0.503 | 0.296 | 0.137 | 0.227 | 0.602 | 0.467 | 0.396 | 0.241 | 0.143 |
| LCLC-103H | 1.19 | 1.01 | 1.09 | 0.262 | 0.3 | 0.711 | 0.767 | 0.764 | 0.41 | 0.322 | 0.432 | 0.42 | 0.223 | 0.247 | 0.26 | 0.72 | 0.714 | 0.355 | 0.315 | 0.431 |
